Measured values taken from the supplement of paper PMC10307832.

Tests used:
Experiment in all cases: relative viability (nuclei count vs DMSO), 5 days (fraction); higher = more cells survive
[1] = compound: C1=CC2=NC=CN=C2C=C1/C=C/3\C(=O)NC(=O)S3 + Cc1nc(NC(=O)N2CCC[C@H]2C(N)=O)sc1-c1ccnc(C(C)(C)C(F)(F)F)c1 [Alpelisib] (partner 2 µM)
Procedure, shortened: (§1)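 Lung cancer cell lines were pin-tool dosed in 1536-well plates on the day after seeding, with either a lone drug or a fixed anchor-drug dose plus five library-drug doses (not always all listed) in √10 steps. Nuclei were counted on 4× images after 5 days. Relative viability is the ratio of treated-well to vehicle-well nuclei counts, with each value a median of duplicate plates.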

[2] = compound: C1=CC2=NC=CN=C2C=C1/C=C/3\C(=O)NC(=O)S3 + Nc1nc2[nH]cc(CCc3ccc(C(=O)N[C@@H](CCC(=O)O)C(=O)O)cc3)c2c(=O)[nH]1 [Pemetrexed] (partner 0.2 µM)
Procedure, shortened: as §1

[3] = compound: C1=CC2=NC=CN=C2C=C1/C=C/3\C(=O)NC(=O)S3 + O=C(c1cc(Cc2n[nH]c(=O)c3ccccc23)ccc1F)N1CCN(C(=O)C2CC2)CC1 [Olaparib] (partner 8 µM)
Procedure, shortened: as §1

BGJ398 + Dasatinib = compound: CCN1CCN(c2ccc(Nc3cc(N(C)C(=O)Nc4c(Cl)c(OC)cc(OC)c4Cl)ncn3)cc2)CC1 [BGJ398] + Cc1nc(Nc2ncc(C(=O)Nc3c(C)cccc3Cl)s2)cc(N2CCN(CCO)CC2)n1 [Dasatinib] (partner 0.075 µM)
Procedure, shortened: as §1

In the case of UMC-11, the relative viability ([1]; first compound 0.02 µM) is reported as 0.987, the relative viability ([1]; first compound 0.06325 µM) is reported as 1.19 and the relative viability ([1]; first compound 0.2 µM) is reported as 0.989. For the same cell line, the relative viability ([1]; first compound 0.6325 µM) was 0.948, the relative viability ([1]; first compound 2 µM) was 0.932 and the relative viability ([2]; first compound 0.02 µM) was 0.775. The relative viability ([2]; first compound 0.06325 µM) was 0.816, the relative viability ([2]; first compound 0.2 µM) was 0.862 and the relative viability ([2]; first compound 0.6325 µM) was 0.79. For the same cell line, the relative viability ([2]; first compound 2 µM) was 0.887, the relative viability ([3]; first compound 0.02 µM) was 0.336 and the relative viability ([3]; first compound 0.06325 µM) was 0.423. The relative viability ([3]; first compound 0.2 µM) was 0.391, the relative viability ([3]; first compound 0.6325 µM) was 0.336 and the relative viability ([3]; first compound 2 µM) was 0.379. It also gave a relative viability (BGJ398 + Dasatinib; first compound 0.01 µM) of 0.463, a relative viability (BGJ398 + Dasatinib; first compound 0.03162 µM) of 0.465 and a relative viability (BGJ398 + Dasatinib; first compound 0.1 µM) of 0.51. The relative viability (BGJ398 + Dasatinib; first compound 0.3162 µM) was 0.454 and the relative viability (BGJ398 + Dasatinib; first compound 1 µM) was 0.443.
